Columns and labels:
Assay in all cases: relative viability (nuclei count vs DMSO), 5 days (fraction); higher = more cells survive
Bosutinib + Luminespib = compound: COc1cc(Nc2c(C#N)cnc3cc(OCCCN4CCN(C)CC4)c(OC)cc23)c(Cl)cc1Cl [Bosutinib] + CCNC(=O)c1noc(-c2cc(C(C)C)c(O)cc2O)c1-c1ccc(CN2CCOCC2)cc1 [Luminespib] (partner 0.01 µM)
How it was run: (§1)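 A single step with final 0.05% Triton X-100, 1% formaldehyde and 1 ug/ml Hoechst fixed the cells and stained nuclei 5 days after treatment. Lung cancer cell lines in 1536-well plates had been treated by pin tool the day after seeding with one drug alone or a fixed anchor-drug dose plus five library-drug doses (not always all listed) in √10 steps, and nuclei were counted on 4× images. Relative viability is the ratio of nuclei in treated wells to nuclei in vehicle wells, taken as the median of duplicate plates.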

Bosutinib + Trametinib = compound: COc1cc(Nc2c(C#N)cnc3cc(OCCCN4CCN(C)CC4)c(OC)cc23)c(Cl)cc1Cl [Bosutinib] + CC(=O)Nc1cccc(-n2c(=O)n(C3CC3)c(=O)c3c(Nc4ccc(I)cc4F)n(C)c(=O)c(C)c32)c1 [Trametinib] (partner 0.02 µM)
How it was run: as §1

Bosutinib + Pictilisib = compound: COc1cc(Nc2c(C#N)cnc3cc(OCCCN4CCN(C)CC4)c(OC)cc23)c(Cl)cc1Cl [Bosutinib] + CS(=O)(=O)N1CCN(Cc2cc3nc(-c4cccc5[nH]ncc45)nc(N4CCOCC4)c3s2)CC1 [Pictilisib] (partner 1 µM)
How it was run: as §1

Bosutinib + Palbociclib = compound: COc1cc(Nc2c(C#N)cnc3cc(OCCCN4CCN(C)CC4)c(OC)cc23)c(Cl)cc1Cl [Bosutinib] + CC(=O)c1c(C)c2cnc(Nc3ccc(N4CCNCC4)cn3)nc2n(C2CCCC2)c1=O [Palbociclib] (partner 0.5 µM)
How it was run: as §1

Bosutinib + Lapatinib = compound: COc1cc(Nc2c(C#N)cnc3cc(OCCCN4CCN(C)CC4)c(OC)cc23)c(Cl)cc1Cl [Bosutinib] + CS(=O)(=O)CCNCc1ccc(-c2ccc3ncnc(Nc4ccc(OCc5cccc(F)c5)c(Cl)c4)c3c2)o1 [Lapatinib] (partner 2 µM)
How it was run: as §1

| Cell Line | relative viability (Bosutinib + Luminespib; first compound 0.01 µM) | relative viability (Bosutinib + Luminespib; first compound 0.03162 µM) | relative viability (Bosutinib + Luminespib; first compound 0.1 µM) | relative viability (Bosutinib + Luminespib; first compound 1 µM) | relative viability (Bosutinib + Trametinib; first compound 0.01 µM) | relative viability (Bosutinib + Trametinib; first compound 0.03162 µM) | relative viability (Bosutinib + Trametinib; first compound 0.1 µM) | relative viability (Bosutinib + Trametinib; first compound 1 µM) | relative viability (Bosutinib + Pictilisib; first compound 0.01 µM) | relative viability (Bosutinib + Pictilisib; first compound 0.03162 µM) | relative viability (Bosutinib + Pictilisib; first compound 0.1 µM) | relative viability (Bosutinib + Pictilisib; first compound 1 µM) | relative viability (Bosutinib + Palbociclib; first compound 0.01 µM) | relative viability (Bosutinib + Palbociclib; first compound 0.03162 µM) | relative viability (Bosutinib + Palbociclib; first compound 0.1 µM) | relative viability (Bosutinib + Palbociclib; first compound 1 µM) | relative viability (Bosutinib + Lapatinib; first compound 0.01 µM) | relative viability (Bosutinib + Lapatinib; first compound 0.03162 µM) | relative viability (Bosutinib + Lapatinib; first compound 0.1 µM) | relative viability (Bosutinib + Lapatinib; first compound 1 µM) |
| --- | --- | --- | --- | --- | --- | --- | --- | --- | --- | --- | --- | --- | --- | --- | --- | --- | --- | --- | --- | --- |
| 201T | 1.01 | 1.06 | 1.02 | 0.848 | 0.745 | 0.696 | 0.682 | 0.708 | 0.685 | 0.653 | 0.66 | 0.615 | 0.355 | 0.345 | 0.35 | 0.338 | 1.03 | 1.05 | 1.01 | 0.96 |
| A549 | – | – | – | – | – | – | – | – | 0.442 | 0.447 | 0.494 | 0.513 | – | – | – | – | 0.949 | 1.05 | 1.06 | 1.03 |
| A-427 | 0.959 | 0.953 | 0.936 | 0.745 | 0.832 | 0.822 | 0.783 | 0.681 | 0.724 | 0.801 | 0.874 | 0.736 | 0.585 | 0.496 | 0.504 | 0.523 | 1.02 | 0.972 | 1 | 1.03 |
| ABC-1 | 0.665 | 0.536 | 0.713 | 0.481 | – | – | – | – | 0.836 | 0.85 | 0.841 | 0.596 | 0.864 | 0.72 | 0.759 | 0.612 | 1.26 | 1.2 | 1.05 | 0.786 |
| BEN | 0.442 | 0.282 | 0.478 | 0.434 | 1.02 | 0.855 | 1.01 | 0.804 | 0.548 | 0.706 | 0.664 | 0.429 | 0.449 | 0.444 | 0.493 | 0.447 | 0.619 | 0.699 | 0.785 | 0.52 |
| CAL-12T | 0.516 | 0.587 | 0.335 | 0.204 | 0.28 | 0.366 | 0.334 | 0.234 | 0.31 | 0.496 | 0.46 | 0.409 | 0.488 | 0.493 | 0.396 | 0.117 | 0.755 | 0.706 | 0.82 | 0.551 |
| COR-L23 | 0.613 | 0.685 | 0.76 | 0.56 | 0.706 | 0.548 | 0.568 | 0.541 | 0.893 | 0.826 | 0.813 | 0.81 | 0.275 | 0.366 | 0.22 | 0.322 | 1.01 | 0.892 | 1.04 | 1.08 |
| COR-L 105 | 0.882 | 0.635 | 0.669 | 0.471 | 0.51 | 0.381 | 0.42 | 0.389 | 0.423 | 0.442 | 0.387 | 0.393 | 0.401 | 0.385 | 0.443 | 0.412 | 0.384 | 0.403 | 0.391 | 0.3 |
| ChaGo-K-1 | 0.622 | 0.555 | 0.47 | 0.585 | 0.91 | 0.89 | 0.891 | 0.875 | 0.544 | 1.05 | 1.06 | 1.14 | 0.918 | 0.939 | 0.972 | 0.881 | – | – | – | – |
| EKVX | 0.799 | 0.914 | 0.834 | 0.633 | 0.306 | 0.334 | 0.364 | 0.228 | 0.427 | 0.469 | 0.41 | 0.309 | 0.39 | 0.367 | 0.373 | 0.314 | 0.231 | 0.216 | 0.242 | 0.172 |
| EMC-BAC-2 | 1.22 | 1.07 | 1.17 | 1.04 | 0.848 | 0.887 | 0.857 | 0.773 | 0.576 | 0.507 | 0.52 | 0.506 | 0.519 | 0.5 | 0.508 | 0.533 | 0.878 | 0.835 | 0.86 | 0.873 |
| EPLC-272H | 0.149 | 0.932 | 0.649 | 0.278 | 0.297 | 0.281 | 0.281 | 0.281 | 0.375 | 0.293 | 0.36 | 0.426 | 0.282 | 0.305 | 0.313 | 0.317 | 1.19 | 0.931 | 1.02 | 1.04 |
| H3255 | 1.11 | 0.912 | 0.866 | 0.784 | – | 0.578 | 0.63 | 0.422 | 0.488 | 0.49 | 0.44 | 0.235 | 0.322 | 0.306 | 0.323 | 0.319 | 0.251 | 0.238 | 0.235 | 0.258 |
| HARA | 0.885 | 0.549 | 0.682 | 0.741 | 0.943 | 0.745 | 0.633 | 0.57 | 0.442 | 0.453 | 0.45 | 0.352 | 0.339 | 0.293 | 0.243 | 0.171 | 0.7 | 0.657 | 0.757 | 0.76 |
| HCC-15 | 0.39 | 0.346 | 0.315 | 0.18 | 0.396 | 0.457 | 0.383 | 0.328 | 0.799 | 0.829 | 0.725 | 0.773 | 0.763 | 0.71 | 0.699 | 0.63 | 0.901 | 0.858 | 0.829 | 0.812 |
| HCC-44 | 1.18 | 1.07 | 1.08 | 0.627 | 1.03 | 1.04 | 1.09 | 1.05 | 0.723 | 0.548 | 0.587 | 0.632 | 0.985 | 0.967 | 0.964 | 0.865 | 1.03 | 0.96 | 0.982 | 1.07 |
